{
  "source": "patent US20170216251A1",
  "about": "“USE OF (+)-1-(3,4-DICHLOROPHENYL)-3-AZABICYCLO[3.1.0]HEXANE TO TREAT ADDICTIVE AND ALCOHOL-RELATED DISORDERS” (priority 2011, published 2017)",
  "key": {"[1]": {"system": "high-alcohol preferring (HAP) mouse", "experiment": "binge operant responding experiment in high-alcohol preferring (HAP) mice", "type": "in vivo", "conditions": "intraperitoneal 25, 50 or 75 mg/kg, FIG. 2", "procedure": "The efficacy of (+)-1-(3,4-dichlorophenyl)-3-azabicyclo[3.1.0]hexane to reduce alcohol-drinking behavior was evaluated in the genetically selected high-alcohol preferring (HAP) mouse, an animal model for human alcohol abuse. The effects of (+)-1-(3,4-dichlorophenyl)-3-azabicyclo[3.1.0]hexane on HAP mice were examined in a binge operant responding experiment, using standard protocols.\nHAP mice were obtained from the Alcohol Research Center at Indiana University School of Medicine. Animals were housed individually at an ambient temperature of 21° C., with a normal 12 hour light/dark cycle. […]\nBehavioral testing was conducted in standard operant chambers (Coulbourn Instruments, Allentown, Pa.) equipped with two removable levers and two dipper fluid delivery systems enclosed in sound-attenuated cubicles as previously described (Cook et al., 2004). […] Responses and reinforcements were recorded and controlled using the 4.0 Coulbourn L2T2 operant software package. […]\nFor the alcohol and sucrose maintained responding studies, (+)-1-(3,4-dichlorophenyl)-3-azabicyclo[3.1.0]hexane [25, 50, or 75 mg/kg] was injected into each HAP mouse, followed by immediate placement in an operant chamber. […] Six HAP mice were evaluated with each concentration of (+)-1-(3,4-dichlorophenyl)-3-azabicyclo[3.1.0]hexane [25, 50, or 75 mg/kg]."}, "[2]": {"system": "alcohol-preferring (P) rat", "experiment": "binge operant responding experiment in alcohol-preferring (P) rats", "type": "in vivo", "procedure": "P rats were obtained from the Alcohol Research Center at Indiana University School of Medicine. Male P rats were used in all experiments, and were approximately 4-5 months of age and weighed between 420 and 580 g at the outset. Animals were housed individually at an ambient temperature of 21° C., with a normal 12 hour light/dark cycle. All rats were provided ad libitum access to food and water, except during training for operant self-administration studies, during which rats were fluid deprived 23 hr daily during the first 5 days of the training phase. Thereafter, these animals were maintained on ad libitum food and water. All training and experimental sessions for all subjects took place between 9 a.m. and 5 p.m. […] Deionized water was administered as the control injection. Behavioral testing was conducted in standard operant chambers (Coulbourn Instruments, Allentown, Pa.) equipped with two removable levers and two dipper fluid delivery systems enclosed in sound-attenuated cubicles as previously described (Cook et al., 2004). All dipper presentations provided a 1.5-sec access to a 0.1-ml dipper, followed by a 3-sec time out period. […] Responses and reinforcements were recorded and controlled using the 4.0 Coulbourn […] operant software package. […]"}, "[3]": {"system": "kidney tubules", "conditions": "cynomolgus monkeys; Guha et al., 2011; cited from earlier work"}, "[4]": {"biological_target": "T1, serotonin transporter (Homo sapiens, UniProt P31645)", "T1 construct": "host or cells: in vivo brain (PET)", "T1 sequence (P31645 whole entry)": "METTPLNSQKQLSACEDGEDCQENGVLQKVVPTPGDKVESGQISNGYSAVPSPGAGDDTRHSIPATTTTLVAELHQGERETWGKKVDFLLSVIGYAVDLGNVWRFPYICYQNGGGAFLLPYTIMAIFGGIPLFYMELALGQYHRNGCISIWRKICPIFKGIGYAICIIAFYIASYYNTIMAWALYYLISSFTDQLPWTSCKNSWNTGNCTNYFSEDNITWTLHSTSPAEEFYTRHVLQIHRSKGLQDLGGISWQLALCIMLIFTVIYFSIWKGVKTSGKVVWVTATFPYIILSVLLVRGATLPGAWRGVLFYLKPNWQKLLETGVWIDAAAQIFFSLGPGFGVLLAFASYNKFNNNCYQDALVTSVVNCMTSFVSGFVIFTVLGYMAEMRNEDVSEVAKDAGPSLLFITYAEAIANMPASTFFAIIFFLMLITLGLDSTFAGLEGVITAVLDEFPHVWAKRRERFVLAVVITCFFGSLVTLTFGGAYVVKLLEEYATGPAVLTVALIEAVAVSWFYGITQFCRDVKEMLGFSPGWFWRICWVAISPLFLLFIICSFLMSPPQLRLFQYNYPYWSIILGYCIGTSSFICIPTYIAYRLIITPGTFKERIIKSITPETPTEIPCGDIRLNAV", "conditions": "PET occupancy study at the doses examined; DeLorenzo et al., 2011; cited from earlier work"}, "[5]": {"conditions": "Phase II, compared to placebo; Sepracor Press Release 2009; cited from earlier work"}, "[6]": {"system": "Parkinson's Disease", "conditions": "Phase II clinical trial; Rascol et al., 2008; cited from earlier work"}, "[7]": {"conditions": "trial for use in weight loss; Astrup et al., 2008; cited from earlier work"}, "[8]": {"conditions": "patients with a preexisting cardiovascular condition, FDA News Release 2010, James et al.; cited from earlier work"}},
  "note": "“Also recorded” adds a separate entry of the source.",
  "data": [
    {"smiles": "Clc1ccc([C@]23CNC[C@H]2C3)cc1Cl", "note": "[(+)-1-(3,4-dichlorophenyl)-3-azabicyclo[3.1.0]hexane]", "values": [
      {"measurement": "effect on sucrose consumption (control sucrose responding)", "setting": "[1]; HAP mice maintained on sucrose water", "value": "lack of effect"},
      {"measurement": "effect on alcohol consumption (ethanol responding)", "setting": "[1]; HAP mice, 90 min operant session, EtOH 10% v/v, FR4", "value": "demonstrates a dose response; also recorded: dose-dependent decrease in alcohol consumption"},
      {"measurement": "effect on sucrose consumption (sucrose maintained responding)", "setting": "[2]; P rats maintained on sucrose water, oral 3.1-50 mg/kg, 90 min operant session, FIG. 1B", "value": "lack of effect"},
      {"measurement": "effect on ethanol consumption (alcohol maintained responding)", "setting": "[2]; P rats, oral 3.1, 6.3, 12.5, 25 or 50 mg/kg 25 min before 90 min operant session, EtOH 10% v/v, FR4, FIG. 1A", "value": "demonstrates a dose response; also recorded: decrease in alcohol consumption that was dose-dependent"}
    ]},
    {"smiles": "CNC[C@H](c1ccc2ccccc2c1)[C@H](O)c1ccccc1", "note": "[PRC200-SS]", "values": [
      {"measurement": "nephrotoxicity", "setting": "[3]", "value": "acute degenerative damage of kidney tubules"}
    ]},
    {"smiles": "N[C@@H]1CC[C@@H](c2ccc(Cl)c(Cl)c2)c2ccccc21", "note": "[SEP-225289]", "values": [
      {"measurement": "serotonin transporter occupancy", "setting": "[4]", "value": "too low at the doses examined to produce an antidepressant effect"},
      {"measurement": "primary efficacy endpoint as antidepressant", "setting": "[5]", "value": "did not meet the primary efficacy endpoint compared to placebo"}
    ]},
    {"smiles": "CCOC[C@@H]1[C@@H](c2ccc(Cl)c(Cl)c2)C[C@@H]2CC[C@H]1N2C", "note": "[Tensofensine]", "values": [
      {"measurement": "efficacy in treatment of Parkinson's Disease", "setting": "[6]", "value": "not be efficacious"},
      {"measurement": "adverse events", "setting": "[7]", "value": "gastrointestinal adverse events (dry mouth, nausea, abdominal pain, constipation, diarrhea)"}
    ]},
    {"smiles": "CC(C)CC(N(C)C)C1(c2ccc(Cl)cc2)CCC1", "note": "(stereo not shown) [sibutramine]", "values": [
      {"measurement": "risk of serious heart events (non-fatal heart attack, non-fatal stroke)", "setting": "[8]", "value": "significant increase in the risk of serious heart events"}
    ]}
  ]
}
